Assay results: paper PMC5749112 (The Journal of General Physiology, 2018)
Entries after “also recorded” stand apart in the source; their conditions may differ. Like-named read-outs stand apart in the source and are kept apart here.

Key:
[1] = target: T1, PnuTSw reconstituted in proteoliposomes (Shewanella woodyi, UniProt B1KPL9); type: biochemical; conditions: proteoliposomes loaded with 1 mM unlabeled ligand
T1 sequence (B1KPL9 1-212): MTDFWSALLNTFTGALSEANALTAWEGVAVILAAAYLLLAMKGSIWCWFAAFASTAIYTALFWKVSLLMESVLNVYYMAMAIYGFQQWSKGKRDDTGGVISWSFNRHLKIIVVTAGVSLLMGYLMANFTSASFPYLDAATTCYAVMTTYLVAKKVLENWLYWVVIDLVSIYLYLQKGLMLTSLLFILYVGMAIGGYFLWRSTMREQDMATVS

[2] = target: T1, PnuTSw reconstituted in proteoliposomes; type: biochemical; conditions: 1 mM unlabeled analogue in outside buffer, 500 nM [3H]thiamine
PnuTSw = target: T2, PnuTSw (Shewanella woodyi, UniProt B1KPL9); type: binding; conditions: for Dissociation constant Kd: WT PnuTSw in DDM, pH 8.0
T2 sequence (B1KPL9 1-212): T1 sequence (B1KPL9 1-212)

PnuTSw mutant D166A = conditions: ITC, 25°C
PnuTSw mutant Y188A [3] = target: T3, PnuTSw mutant Y188A (Shewanella woodyi, UniProt B1KPL9, Y188A); conditions: ITC, 25°C
T3 sequence (B1KPL9 1-212 Y188A): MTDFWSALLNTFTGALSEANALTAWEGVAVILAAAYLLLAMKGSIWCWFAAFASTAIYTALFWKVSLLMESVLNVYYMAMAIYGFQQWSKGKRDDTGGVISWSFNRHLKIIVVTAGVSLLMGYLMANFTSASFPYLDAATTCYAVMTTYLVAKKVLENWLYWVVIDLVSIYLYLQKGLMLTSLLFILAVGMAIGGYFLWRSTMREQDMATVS

PnuTSw mutant W88A [4] = target: T4, PnuTSw mutant W88A (Shewanella woodyi, UniProt B1KPL9, W88A); conditions: proteoliposomes
T4 sequence (B1KPL9 1-212 W88A): as the sequence (B1KPL9 1-212 Y188A) above, with W88A, A188Y counted along it

PnuTSw mutant W88A [5] = target: T4, PnuTSw mutant W88A; conditions: ITC, 25°C
PnuTSw mutant Y188A [6] = target: T3, PnuTSw mutant Y188A; test: biochemical
PnuTSw mutant Y162F [7] = target: T5, PnuTSw mutant Y162F (Shewanella woodyi, UniProt B1KPL9, W162F); test: biochemical
T5 sequence (B1KPL9 1-212 W162F): as the sequence (B1KPL9 1-212 Y188A) above, with W162F, A188Y counted along it

PnuTSw mutant Y77A [8] = target: T6, PnuTSw mutant Y77A (Shewanella woodyi, UniProt B1KPL9, Y77A); test: biochemical
T6 sequence (B1KPL9 1-212 Y77A): as the sequence (B1KPL9 1-212 Y188A) above, with Y77A, A188Y counted along it

PnuTSw mutant Y159F [9] = target: T7, PnuTSw mutant Y159F (Shewanella woodyi, UniProt B1KPL9, W159F); conditions: ITC, 25°C
T7 sequence (B1KPL9 1-212 W159F): as the sequence (B1KPL9 1-212 Y188A) above, with W159F, A188Y counted along it

PnuTSw mutant W88A [10] = target: T4, PnuTSw mutant W88A; test: biochemical
PnuTSw mutant W199A [11] = target: T8, PnuTSw mutant W199A (Shewanella woodyi, UniProt B1KPL9, W199A); test: biochemical
T8 sequence (B1KPL9 1-212 W199A): as the sequence (B1KPL9 1-212 Y188A) above, with A188Y, W199A counted along it

PnuTSw mutant Y159F [12] = target: T7, PnuTSw mutant Y159F; test: biochemical
PnuTSw mutant Y162F [13] = target: T5, PnuTSw mutant Y162F; conditions: ITC, 25°C
PnuTSw mutant Y77A [14] = target: T6, PnuTSw mutant Y77A; conditions: ITC, 25°C
PnuTSw mutant W199A [15] = target: T8, PnuTSw mutant W199A; conditions: ITC, 25°C

Cc1ncc(C[n+]2csc(CCOP(=O)(O)O)c2C)c(N)n1 [TMP, thiamine monophosphate]
Counter flow of [3H]thiamine (transported substrate or not) [1]: did not trigger accumulation of the label
Inhibition of [3H]thiamine uptake [2]: did not inhibit transport
Dissociation constant Kd (PnuTSw; ITC, 25°C): binding could not be detected; also recorded: neither TMP nor TPP could bind; also recorded: No binding

Cc1ncc(C[n+]2csc(CCO[P@](=O)(O)OP(=O)(O)O)c2C)c(N)n1 [TPP, thiamine pyrophosphate]
Counter flow of [3H]thiamine (transported substrate or not) [1]: did not trigger accumulation of the label
Inhibition of [3H]thiamine uptake [2]: did not inhibit transport
Dissociation constant Kd (PnuTSw; ITC, 25°C): binding could not be detected; also recorded: neither TMP nor TPP could bind; also recorded: No binding

Cc1ncc(C[n+]2csc(CCO)c2C)c(N)n1 [Thiamine, thiamine]
Dissociation constant Kd (PnuTSw mutant D166A): could not be detected
Dissociation constant Kd (PnuTSw mutant D166A; listed as thiamine): No binding
Dissociation constant Kd (PnuTSw mutant Y188A [3]): did not affect the binding of thiamine
Thiamine transport activity of mutant (PnuTSw mutant W88A [4]): unable to transport thiamine
Dissociation constant Kd (PnuTSw mutant W88A [5]): did not affect the binding of thiamine
Kd (PnuTSw mutant Y188A [6]): 21 ± 2 µM
Kd (PnuTSw mutant Y162F [7]): 26 ± 3 µM
Kd (PnuTSw mutant Y77A [8]): 17 ± 2 µM
Dissociation constant Kd (PnuTSw mutant Y159F [9]): neither of the mutations affected thiamine binding
Kd (PnuTSw): 12 ± 5 µM
ΔH (PnuTSw; ITC, 25°C, WT PnuTSw): -27 ± 22 kJ/mol
ΔS (PnuTSw; ITC, 25°C, WT PnuTSw): 5 ± 71 J/mol/K
Kd (PnuTSw mutant W88A [10]): 13 ± 2 µM
Kd (PnuTSw mutant W199A [11]): 12 ± 1 µM
Kd (PnuTSw mutant Y159F [12]): 23 ± 2 µM
Dissociation constant Kd (PnuTSw mutant Y162F [13]): neither of the mutations affected thiamine binding
Dissociation constant Kd (PnuTSw mutant Y77A [14]): did not affect the binding of thiamine
Dissociation constant Kd (PnuTSw mutant W199A [15]): did not affect the binding of thiamine
